We go through one compound from patent US20220409548A1, “AMORPHOUS SOLID DISPERSION OF PYRAZOLE-AMIDE COMPOUND” (JAPAN TOBACCO INC., priority 2019, published 2022).

Data set [1] in a line: Precipitation test in acidic media (pH 1.2). In kind it is physicochemical. Particulars: ethanol solution 100 mg/mL into JP 1st fluid pH 1.2, 450 mL; addition of copolyvidone, methylcellulose or hypromellose (0.01 g) vs HPMCAS, polyvinyl alcohol or no polymer; FIG. 3. The protocol:
The dissolution test was performed using a dissolution tester (trade name: NTR-VS6P, manufactured by Toyama Sangyo Co., Ltd.) that conforms to the Japanese Pharmacopoeia Dissolution Test Method 2 (Paddle Method), at paddle rotating speed 75 rpm, test media amount 450 mL. An amount equivalent to 100 mg of the compound of the formula [I] was added to the test media, and the dissolved amount of the compound of the formula [I] was measured at each sampling point with a spectrophotometer (UV-1600, manufactured by Shimadzu Corporation).
The precipitation behavior of the compound of the formula [I], dissolved in ethanol (concentration: 100 mg/mL), in the following 6 types of test medium was evaluated by the same test method as in Experimental Example 1. […]

Data set [2] concerns pyruvate dehydrogenase kinase (PDHK). Conditions: described in patent document 1 (WO 2014/142290); cited from earlier work.

With `CC(C)(O)CCOc1cc(-c2cnn(C(C)(C)C(N)=O)c2)c2c(c1)[C@@](O)(C(F)(F)F)c1ccccc1-2` [compound of the formula [I], 2-{4-[(9R)-9-hydroxy-2-(3-hydroxy-3-methylbutyloxy)-9-(trifluoromethyl)-9H-fluoren-4-yl]-1H-pyrazol-1-yl}-2-methylpropanamide], the “precipitation behavior in pH 1.2 test media” value in data set [1] is recorded as “significantly suppressed the precipitation”. Moreover, in data set [2], the “pyruvate dehydrogenase kinase (PDHK) inhibitory activity” value is recorded as “have a pyruvate dehydrogenase kinase (PDHK) inhibitory activity”.
